Assay results taken from patent US20170234881A1, “METHODS OF DIAGNOSING AND TREATING CANCER” (INSERM ( INSTITUT NATIONAL DE LA SANTÉ ET DE LA RECHERCHE …, priority 2014, published 2017).

Legend:
ShC tumors = test: Ki67 staining of shC MCF7 tumors xenografted in mice; type: in vivo; details: OCDO treatment
Description: FIG. 7. Knock-down of 11βHSD2 decreases cell proliferation, invasion and survival in MCF7 cells as well as tumor growth and OCDO reverses these effects. shC or shHSD2 MCF7 cells were analyzed as followed: (A) The proliferation of sh-C or shHSD2 cells treated or not with OCDO 5 μM 24 h was measured using quantification of DNA BrDU incorporation as described in FIG. 2A. (B) The proliferation of sh-C or shHSD2 cells treated or not with increasing concentration of cortisone for 24 h was measured as in (A). (C) The invasiveness of sh-C or shHSD2 cells treated or not with OCDO 5 μM for 72 h was assayed using matrigel-coated filters. (D) the formation of colony by sh-C or shHSD2 cells treated or not with OCDO 1 μM was quantified as described in FIG. 6F. […] Animals were monitored for tumor growth twice a week. […] (F) Mean (±s.e.m) of Ki67 positive cell number determined from IHC staining of shC or shHSD2 MCF7 tumor sections from (E), n=8, *P<0.05 (Student's t-test) using HistoQuant, Pannoramic Viewer (3DHistech).
(§1) Exponentially growing MCF7, ShMCF7, E0771, MDA-MB231, MDA-MB468 and TS/A cells were collected, washed twice in PBS and resuspended in PBS. […] Animals were examined daily, and body weights were measured twice per week. In all the experiments, the tumor volume was determined by direct measurement with a caliper and was calculated using the formula (width^2×length)/2. […]

MDA-MB468 cells = test: Growth of MDA-MB468 tumors implanted s.c. into mice; type: in vivo; details: human MDA-MB468 tumors, OCDO 16 μg/kg s.c.
Description: FIG. 2. OCDO is a tumor promoter in vitro and in vivo and its inhibition contributes to the anti-tumor effects of Tam and DDA. (A, B) Histograms representing the effect of OCDO or 17β-estrogen (E2) on MCF7 (A) and TS/A (B) cell proliferation after 24 h treatment using a colorimetric immunoassay measuring BrDU incorporation in DNA (C, D) Histogram representing the effect of OCDO on MCF7 (C) and TS/A (D) cell invasion. Data are the mean of three separate experiments (±s.e.m), *P<0.05, **P<0.01, ***P<0.001 (Student's t-test). (E, F) Mice were implanted s.c. with MCF7 (E) or TS/A (F) cells and animals (8 per group) were treated s.c. every day starting on the day of implantation with either the solvent vehicle or OCDO (16 μg/kg for MCF7 or 50 μg/kg for TS/A). Animals were monitored for tumour growth twice a week. […] (G) Mean (±s.e.m) of Ki67 positive cell number determined from IHC staining of MCF7 tumor sections from (E), n=8, *P<0.05 (Student's t-test) using HistoQuant, Pannoramic Viewer (3DHistech). […]
as §1

TS/A cells = test: Cell invasion assay (matrigel-coated filters), TS/A; type: cell-based, mouse; details: concentration-dependent, level reached
Description: FIG. 2. OCDO is a tumor promoter in vitro and in vivo and its inhibition contributes to the anti-tumor effects of Tam and DDA. (A, B) Histograms representing the effect of OCDO or 17β-estrogen (E2) on MCF7 (A) and TS/A (B) cell proliferation after 24 h treatment using a colorimetric immunoassay measuring BrDU incorporation in DNA (C, D) Histogram representing the effect of OCDO on MCF7 (C) and TS/A (D) cell invasion. Data are the mean of three separate experiments (±s.e.m), *P<0.05, **P<0.01, ***P<0.001 (Student's t-test). (E, F) Mice were implanted s.c. with MCF7 (E) or TS/A (F) cells and animals (8 per group) were treated s.c. every day starting on the day of implantation with either the solvent vehicle or OCDO (16 μg/kg for MCF7 or 50 μg/kg for TS/A). Animals were monitored for tumour growth twice a week. The data are representative of three independent experiments. The mean tumor volume±s.e.m is shown, *P<0.05, **P<0.01, ***P<0.001 (analysis of variance (ANOVA), Dunnett's post test). (G) Mean (±s.e.m) of Ki67 positive cell number determined from IHC staining of MCF7 tumor sections from (E), n=8, *P<0.05 (Student's t-test) using HistoQuant, Pannoramic Viewer (3DHistech). […]
Invasion assays were carried out using Bio-Coat migration chambers (BD Falcon) with 8 μm filters previously coated with matrigel. […] The entire membranes were mounted on glass slides, and were counted under a microscope. […]

SMILES: CC(C)CCC[C@@H](C)[C@H]1CC[C@H]2[C@@H]3CC(=O)[C@@]4(O)C[C@@H](O)CC[C@]4(C)[C@H]3CC[C@]12C [OCDO, 6-oxo-cholestan-3β,5α-diol]
- cell proliferation by KI67 staining of tumors (ShC tumors): increased
- tumor growth (MDA-MB468 cells): stimulates the growth
- invasiveness compared with the control (TS/A cells): 2.3 fold
